Data set [1] relates to WiDr cells (a colon carcinoma cell line) engineered for stable expression of β-galactosidase (β-gal). Nature of the data set: cells. It counts as cell-based. The conditions noted are these: read-out: IC50 LacZ.
For data set [2], the system named is WiDr cells (a colon carcinoma cell line) engineered for stable expression of stCPG2(Q)3. As to the kind of experiment: cells. It counts as cell-based. To be noted: for IC50: read-out: IC50 stCPG2(Q)3.
For data set [3] the following is noted: buffer; for T1/2 prodrug: pH 7.3.
The target in another data set is CPG2 (Pseudomonas sp., UniProt P06621). It counts as biochemical, Pseudomonas R16.
Data set [4] has as its system WiDr cells (a colon carcinoma cell line) engineered for stable expression of β-galactosidase (β-gal). The conditions noted are these: cited from earlier work.
Data set [5] relates to WiDr cells (a colon carcinoma cell line) engineered for stable expression of stCPG2(Q)3. The conditions noted are these: cited from earlier work.

The source of these data is patent publication US7235585B2 (priority 2002, dated 2007).

Where two headings read alike, the source gives them in different places.

Chain of CPG2 (P06621 23-415): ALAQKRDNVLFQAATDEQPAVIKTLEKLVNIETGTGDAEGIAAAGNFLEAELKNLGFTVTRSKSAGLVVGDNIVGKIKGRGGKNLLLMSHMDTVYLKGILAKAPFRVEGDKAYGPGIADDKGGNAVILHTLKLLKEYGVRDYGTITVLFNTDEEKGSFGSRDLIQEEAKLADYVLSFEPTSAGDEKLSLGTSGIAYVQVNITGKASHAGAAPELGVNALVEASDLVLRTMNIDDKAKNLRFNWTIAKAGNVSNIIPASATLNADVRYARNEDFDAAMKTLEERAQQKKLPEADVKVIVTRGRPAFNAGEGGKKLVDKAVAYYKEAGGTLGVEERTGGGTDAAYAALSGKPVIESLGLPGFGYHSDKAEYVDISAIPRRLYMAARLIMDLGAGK

As for `CN(C(=O)OCc1ccc(OC(=O)NC(CCC(=O)O)C(=O)O)cc1)c1ccc(N(CCBr)CCBr)cc1` (centres unmarked) [CP-16], in data set [1], the IC50 amounted to 27.2 µM. Also, in data set [2], the “Degree of activation (fold)” value is recorded as 7.5 fold and the IC50 was 3.6 µM. Also, in data set [3], the “T1/2 prodrug/T1/2 drug” value was found to be 1.0 and the T1/2 prodrug is 2.7 min.
In the case of `CN(C(=O)OCc1ccc(OC(=O)NC(CCC(=O)O)C(=O)O)cc1)c1ccc(N(CCCl)CCCl)cc1` (centres unmarked) [CP-17], the IC50 in data set [1] is 19.6 µM. Moreover, in data set [2], the “Degree of activation (fold)” value was 11.5 fold and the IC50 worked out at 1.7 µM. Besides, the kcat at CPG2 came to 4.32 s⁻¹. Moreover, in data set [3], the “T1/2 prodrug/T1/2 drug” value came out at 20.6 and the T1/2 prodrug is listed as 173.6 min.
In the case of `O=C(O)CCC(NC(=O)Nc1ccc(COC(=O)Nc2ccc(N(CCI)CCI)cc2)cc1)C(=O)O` (centres unmarked) [CP-2], in data set [1], the IC50 was found to be 180 µM. In data set [2], the “Degree of activation (fold)” value amounted to 101.6 fold, the “differentials in the WiDr cell lines compared with CMDA” value (“differentials in the WiDr cell lines” for short) is “better than those of CMDA” and the IC50 is 1.8 µM. In addition, in data set [3], the “T1/2 prodrug/T1/2 drug” value is on record as 1.9 and the T1/2 prodrug stood at 0.97 min.
Regarding `CS(=O)(=O)OCCN(CCCl)c1ccc(C(=O)N[C@@H](CCC(=O)O)C(=O)O)cc1` [CMDA, N-{4-[(2-chloroethyl)(2-mesyloxyethyl)amino]benzoyl}-L-glutamic acid], the “Degree of activation (fold)” value in data set [2] is recorded as 32.3 fold. In addition, the IC50 is 3230 µM in data set [4] and 100 µM in data set [5].
Regarding `O=C(O)CCC(NC(=O)Oc1ccc(COC(=O)Nc2ccc(N(CCBr)CCBr)cc2)cc1)C(=O)O` (centres unmarked) [CP-11], the IC50 in data set [1] was determined as 99.7 µM. Moreover, in data set [2], the “Degree of activation (fold)” value is given as 38.3 fold, the “differentials in the WiDr cell lines” value is “better than those of CMDA” and the IC50 was 2.6 µM. Also, in data set [3], the “T1/2 prodrug/T1/2 drug” value worked out at 0.4 and the T1/2 prodrug is recorded as 0.9 min.
Turning to `O=C(O)CCC(NC(=O)Nc1ccc(COC(=O)Nc2ccccc2N(CCI)CCI)cc1)C(=O)O` (centres unmarked) [CP-1], the 50% inhibitory concentration (IC50) in data set [1] was 149 µM. In data set [2], the “Degree of activation (fold)” value is reported as 49.7 fold, the “differential in the transfected WiDr cell line” value came to 50 fold, the “differentials in the WiDr cell lines” value was “better than those of CMDA” and the IC50 worked out at 3 µM. The T1/2 prodrug in data set [3] was 2.7 min.
As to `O=C(O)CCC(NC(=O)Oc1ccc(COC(=O)Nc2ccc(N(CCCl)CCCl)cc2)cc1)C(=O)O` (centres unmarked) [CP-13], the kcat at CPG2 was less than 10 s⁻¹.
On to `CS(=O)(=O)OCCN(CCCl)c1ccccc1NC(=O)OCc1ccc(OC(=O)NC(CCC(=O)O)C(=O)O)cc1` (centres unmarked) [CP-14], for which the IC50 in data set [1] came out at 148 µM. In addition, in data set [2], the “Degree of activation (fold)” value is 5.2 fold and the IC50 turned out to be 28.5 µM. Further, in data set [3], the T1/2 prodrug amounted to 10.0 min.
As to `CS(=O)(=O)OCCN(CCOS(C)(=O)=O)c1ccccc1NC(=O)OCc1ccc(OC(=O)NC(CCC(=O)O)C(=O)O)cc1` (centres unmarked) [CP-7], the IC50 in data set [1] turned out to be 208 µM. Further, in data set [2], the “Degree of activation (fold)” value is reported as 5.2 fold and the IC50 was found to be 40 µM. Besides, in data set [3], the T1/2 prodrug was 10.8 min.
For `O=C(O)CCC(NC(=O)Nc1ccc(COC(=O)Nc2ccc(N(CCBr)CCBr)cc2)cc1)C(=O)O` (centres unmarked) [CP-4], the IC50 in data set [1] is 205 µM. Also, in data set [2], the “Degree of activation (fold)” value worked out at 66.6 fold, the “differentials in the WiDr cell lines” value is given as “better than those of CMDA” and the IC50 was 3.1 µM. Moreover, in data set [3], the “T1/2 prodrug/T1/2 drug” value is given as 0.4 and the T1/2 prodrug was found to be 0.85 min.
For `O=C(O)CCC(NC(=O)Nc1ccc(COC(=O)Nc2ccccc2N(CCBr)CCBr)cc1)C(=O)O` (centres unmarked) [CP-3], the IC50 in data set [1] came to 118 µM. In addition, in data set [2], the “Degree of activation (fold)” value came to 24.9 fold, the “differential in the transfected WiDr cell line” value came out at 25 fold and the IC50 stood at 4.7 µM. In addition, in data set [3], the “T1/2 prodrug/T1/2 drug” value was 3.5 and the T1/2 prodrug is 3.0 min.
On to `CN(C(=O)OCc1ccc(NC(=O)NC(CCC(=O)O)C(=O)O)cc1)c1ccc(N(CCBr)CCBr)cc1` [Compound P-2, 4-{N-[4′-bis(2″-bromoethyl)amino-phenyl]-N-methyl-carbamoyl-oxymethyl}-phenyl-carbamoyl-L-glutamic acid], for which the IC50 amounted to 332 µM in data set [1] (Homo sapiens, WiDr) and 4.1 µM in data set [2] (Homo sapiens, WiDr). For the same compound, the “Degree of activation (fold)” value in data set [2] is recorded as 81.4 fold. Further, the “differentials in the WiDr cell lines” value in data set [2] was “better than those of CMDA”. In data set [3], the “T1/2 prodrug/T1/2 drug” value was determined as 1.0.
As to `CN(C(=O)OCc1ccc(NC(=O)NC(CCC(=O)O)C(=O)O)cc1)c1ccc(N(CCI)CCI)cc1` [Compound P-1, 4-{N-[4′-bis(2″-iodoethyl)amino-phenyl]-N-methyl-carbamoyl-oxymethyl}-phenyl-carbamoyl-L-glutamic acid], the half-inhibitory concentration (IC50) in data set [1] (Homo sapiens, WiDr) was 185 µM; in data set [2] (Homo sapiens, WiDr) it was 1.5 µM. Also, the “Degree of activation (fold)” value in data set [2] is recorded as 124.0 fold. For the same compound, in data set [2], the “differentials in the WiDr cell lines” value is “better than those of CMDA”. The “T1/2 prodrug/T1/2 drug” value in data set [3] worked out at 6.5.
Turning to `O=C(O)CCC(NC(=O)Nc1ccc(COC(=O)Nc2ccc(N(CCCl)CCCl)cc2)cc1)C(=O)O` (centres unmarked) [CP-6], the kcat at CPG2 lay in the range of 10 to 50 s⁻¹.
On to `O=C(O)CCC(NC(=O)Oc1ccc(COC(=O)Nc2ccc(N(CCI)CCI)cc2)cc1)C(=O)O` (centres unmarked) [CP-9], for which the IC50 in data set [1] worked out at 53.6 µM. In data set [2], the “Degree of activation (fold)” value amounted to 42.5 fold, the “differentials in the WiDr cell lines” value is “better than those of CMDA” and the IC50 was determined as 1.3 µM. In data set [3], the “T1/2 prodrug/T1/2 drug” value is listed as 2.0 and the T1/2 prodrug is reported as 0.98 min.
For `O=C(O)CCC(NC(=O)Nc1ccc(COC(=O)Nc2ccccc2N(CCCl)CCCl)cc1)C(=O)O` (centres unmarked) [CP-5], the IC50 in data set [1] was found to be 21.1 µM. In addition, in data set [2], the “Degree of activation (fold)” value is given as 4.7 fold and the IC50 came out at 4.5 µM. In addition, at CPG2, the kcat came to 2.92 s⁻¹. In data set [3], the “T1/2 prodrug/T1/2 drug” value is 13.9 and the T1/2 prodrug stood at 107.5 min.
As to `O=C(O)CCC(NC(=O)Oc1ccc(COC(=O)Nc2ccccc2N(CCBr)CCBr)cc1)C(=O)O` (centres unmarked) [CP-10], the IC50 in data set [1] was 183 µM. Besides, in data set [2], the “Degree of activation (fold)” value is recorded as 1.9 fold and the IC50 stood at 95.2 µM. Further, in data set [3], the “T1/2 prodrug/T1/2 drug” value was found to be 3.5 and the T1/2 prodrug was 3.47 min.
Regarding `O=C(O)CCC(NC(=O)Oc1ccc(COC(=O)Nc2ccccc2N(CCI)CCI)cc1)C(=O)O` (centres unmarked) [CP-8], in data set [1], the IC50 is 73.3 µM. Further, in data set [2], the “Degree of activation (fold)” value came out at 3.9 fold and the IC50 was 19 µM. Moreover, the T1/2 prodrug in data set [3] turned out to be 2.1 min.
Consider `O=C(O)CCC(NC(=O)Oc1ccc(COC(=O)Nc2ccccc2N(CCCl)CCCl)cc1)C(=O)O` (centres unmarked) [CP-12], for which, in data set [1], the IC50 was 38.1 µM. Besides, in data set [2], the “Degree of activation (fold)” value is listed as 1.4 fold and the IC50 turned out to be 28.1 µM. Besides, the kcat on CPG2 was 4.27 s⁻¹. Moreover, in data set [3], the “T1/2 prodrug/T1/2 drug” value is on record as 11.9 and the T1/2 prodrug was 146.3 min.
On to `CN(C(=O)OCc1ccc(NC(=O)NC(CCC(=O)O)C(=O)O)cc1)c1ccc(N(CCCl)CCCl)cc1` [Compound P-3, 4-{N-[4′-bis(2″-chloroethyl)amino-phenyl]-N-methyl-carbamoyl-oxymethyl}-phenyl-carbamoyl-L-glutamic acid], for which the IC50 was found to be 39.7 µM in data set [1] (Homo sapiens, WiDr) and 2.5 µM in data set [2] (Homo sapiens, WiDr). The “Degree of activation (fold)” value in data set [2] is given as 15.9 fold. The kcat on CPG2 came to 5.50 s⁻¹. The “T1/2 prodrug/T1/2 drug” value in data set [3] stood at 20.9.
In the case of `CN(C(=O)OCc1ccc(OC(=O)NC(CCC(=O)O)C(=O)O)cc1)c1ccc(N(CCI)CCI)cc1` (centres unmarked) [CP-15], in data set [1], the IC50 was 21.5 µM. Besides, in data set [2], the “Degree of activation (fold)” value is on record as 8.3 fold and the IC50 is 2.6 µM. Further, in data set [3], the “T1/2 prodrug/T1/2 drug” value is listed as 7.7 and the T1/2 prodrug is 4.6 min.

A word on the IC50: it is the point on the concentration scale where inhibition reaches its midpoint. One may read the kcat as the maximal rate divided by the concentration of active sites.
